Measured values published in patent publication US4661602A, “Substituted alkyl imidazole derivatives” (G. D. Searle & Co., priority 1985, dated 1987).
In brackets after ≈: the same amount, converted by molar mass. Structures can show the parent of a compound that is named as a salt. Where two headings read alike, the source gives them in different places.

Assays:
B. Fragilis NCTC 9344 = experiment: Anti-anaerobic activity, strain C (microtitre plate MIC/MBC); assay type: cell-based; details: Bacteroides fragilis, NCTC9344, 48 h
[1] = system: Cl. perfringens NCTC 8237; experiment: microbe, parasite or virus in culture; assay type: cell-based; details: Clostridium perfringens, NCTC8237
P. acnes NCTC 7337 = experiment: Anti-anaerobic activity, additional strains; assay type: cell-based, Propionibacterium acnes; details: Cutibacterium acnes, NCTC7337
[2] = system: Clostridium perfringens NCTC 523; experiment: microbe, parasite or virus in culture; assay type: cell-based; details: NCTC523
[3] = system: Propionibacterium acnes NCTC 737; experiment: Anti-anaerobic activity, additional strains; assay type: cell-based; details: Cutibacterium acnes, NCTC737
B. Fragilis ATCC 11295 = experiment: Anti-anaerobic activity, strain D (microtitre plate MIC/MBC); assay type: cell-based; details: Bacteroides fragilis, ATCC11295, 48 h
[4] = system: Peptococc. magnus ATCC 29328; experiment: Anti-anaerobic activity, additional strains; assay type: cell-based
Campl. fetus ATCC 29428 = experiment: Anti-anaerobic activity, additional strains; assay type: cell-based; details: Campylobacter fetus, ATCC29428
B. Fragilis NCTC 10581 = experiment: Anti-anaerobic activity, strain A (microtitre plate MIC/MBC); assay type: cell-based, Bacteroides fragilis
[5] = system: Fuso. necrophorum ATCC 11295; experiment: Anti-anaerobic activity, additional strains; assay type: cell-based; details: Fusobacterium necrophorum, ATCC11295
Trichomonas vaginalis = experiment: MIC against Trichomonas vaginalis (Diamonds Medium); assay type: cell-based
P. prevotti ATCC 9321 = experiment: Anti-anaerobic activity, additional strains; assay type: cell-based
B. Fragilis WS-1 = experiment: Anti-anaerobic activity, strain E (microtitre plate MIC/MBC); assay type: cell-based; details: Bacteroides fragilis, 48 h
[6] = system: Peptostrepto anaerobicus ATCC 27337; experiment: Anti-anaerobic activity, additional strains; assay type: cell-based
B. Fragilis NCTC 9343 = experiment: Anti-anaerobic activity, strain B (microtitre plate MIC/MBC); assay type: cell-based, Bacteroides fragilis; details: for MIC: 48 hours, 37° C., anaerobic chamber, lowest concentration with no detectable growth
[7] = Peptostrepto anaerobicus ATCC 27337
[8] = Bacteroides fragilis, NCTC10581, 48 h

## Clc1ccc(N2CCN=C2C(Cn2ccnc2)c2ccccc2)c(Cl)c1 (centres unmarked) [Example 3, 1-(2,4-Dichlorophenyl)-4,5-dihydro-2-[2-(imidazol-1-yl)-1-phenylethyl]imidazole hydrochloride]
B. Fragilis NCTC 9344; strain C, less than 5 colonies (99.9% reduction in viable count) after 48 hours, read-out: MBC
  MBC: 0.8 µg/mL
[1]
  MBC: 3.1 µg/mL
  MIC: 3.1 µg/mL
P. acnes NCTC 7337; P. acnes NCTC 7337, read-out: MBC
  MBC: 0.8 µg/mL
P. acnes NCTC 7337; P. acnes NCTC 7337, read-out: MIC
  MIC: 0.8 µg/mL
[2]
  MBC: 3.1 µg/mL
  MIC: 0.8 µg/mL
[3]
  MBC: 3.1 µg/mL
[3]; Propionibacterium acnes NCTC 737, read-out: MIC
  MIC: 0.8 µg/mL
B. Fragilis ATCC 11295; strain D, less than 5 colonies (99.9% reduction in viable count) after 48 hours, read-out: MBC
  MBC: 0.8 µg/mL
[4]; Peptococc. magnus ATCC 29328
  MIC: 1.5 µg/mL
[4]; Peptococc. magnus ATCC 29328, read-out: MBC
  MBC: 6.2 µg/mL
Campl. fetus ATCC 29428; Campl. fetus ATCC 29428, read-out: MBC
  MBC: 6.2 µg/mL
Campl. fetus ATCC 29428; Campl. fetus ATCC 29428, read-out: MIC
  MIC: 1.5 µg/mL
B. Fragilis NCTC 10581; Bacteroides fragilis, NCTC10581, 48 h, strain A, less than 5 colonies (99.9% reduction in viable count) after 48 hours, read-out: MBC
  MBC: 0.8 µg/mL
[5]
  MIC: 3.1 µg/mL
[5]; Fuso. necrophorum ATCC 11295, read-out: MBC
  MBC: 6.2 µg/mL
Trichomonas vaginalis
  MIC: 3.1 µg/mL
P. prevotti ATCC 9321
  MIC: 3.1 µg/mL
P. prevotti ATCC 9321; P. prevotti ATCC 9321
  MBC: 12.5 µg/mL
B. Fragilis WS-1; strain E, 48 hours, 37° C., anaerobic chamber, lowest concentration with no detectable growth, read-out: MIC
  MIC: 1.5 µg/mL
[6]
  MBC: 3.1 µg/mL
[6]; [7]
  MIC: 1.5 µg/mL
B. Fragilis NCTC 9343; Bacteroides fragilis, NCTC9343, 48 h, strain B, read-out: MIC
  MIC: 1.5 µg/mL
B. Fragilis NCTC 9343; Bacteroides fragilis, NCTC9343, 48 h, strain B, less than 5 colonies (99.9% reduction in viable count) after 48 hours, read-out: MBC
  MBC: 1.5 µg/mL

## Cc1ncc([N+](=O)[O-])n1CCO [Metronidazole, reference compound]
B. Fragilis NCTC 9344
  MBC: 1.2 µg/mL (≈ 7.01 µM)
  MIC: 0.8 µg/mL (≈ 4.67 µM)
[1]
  MBC: 10 µg/mL (≈ 58.4 µM)
  MIC: 10 µg/mL (≈ 58.4 µM)
P. acnes NCTC 7337
  MBC: 10 µg/mL (≈ 58.4 µM)
  MIC: 10 µg/mL (≈ 58.4 µM)
[2]
  MBC: 1.2 µg/mL (≈ 7.01 µM)
  MIC: 0.08 µg/mL (≈ 0.467 µM)
[3]
  MBC: 10 µg/mL (≈ 58.4 µM)
  MIC: 10 µg/mL (≈ 58.4 µM)
B. Fragilis ATCC 11295
  MBC: 10 µg/mL (≈ 58.4 µM)
[4]
  MBC: 10 µg/mL (≈ 58.4 µM)
[4]; Peptococc. magnus ATCC 29328
  MIC: 0.6 µg/mL (≈ 3.51 µM)
Campl. fetus ATCC 29428
  MBC: 10 µg/mL (≈ 58.4 µM)
  MIC: 10 µg/mL (≈ 58.4 µM)
B. Fragilis NCTC 10581; [8]
  MBC: 1.2 µg/mL (≈ 7.01 µM)
  MIC: 0.8 µg/mL (≈ 4.67 µM)
B. Fragilis NCTC 10581; Bacteroides fragilis, NCTC10581, 48 h, strain A, 48 hours, 37° C., anaerobic chamber, lowest concentration with no detectable growth, read-out: MIC
  MIC: 0.6 µg/mL (≈ 3.51 µM)
B. Fragilis NCTC 10581; strain A, 48 hours, 37° C., anaerobic chamber, lowest concentration with no detectable growth
  MIC: 1.2 µg/mL (≈ 7.01 µM)
[5]
  MBC: 10 µg/mL (≈ 58.4 µM)
  MIC: 10 µg/mL (≈ 58.4 µM)
Trichomonas vaginalis; Diamonds Medium, lowest concentration at which no mobile organisms are viable microscopically, read-out: MIC
  MIC: 0.6 µg/mL (≈ 3.51 µM)
P. prevotti ATCC 9321; P. prevotti ATCC 9321
  MBC: 2.5 µg/mL (≈ 14.6 µM)
P. prevotti ATCC 9321; P. prevotti ATCC 9321, read-out: MIC
  MIC: 1.2 µg/mL (≈ 7.01 µM)
B. Fragilis WS-1
  MBC: 1.2 µg/mL (≈ 7.01 µM)
  MIC: 0.8 µg/mL (≈ 4.67 µM)
[6]; [7]
  MIC: 0.3 µg/mL (≈ 1.75 µM)
[6]; Peptostrepto anaerobicus ATCC 27337, read-out: MBC
  MBC: 0.3 µg/mL (≈ 1.75 µM)
B. Fragilis NCTC 9343; Bacteroides fragilis, NCTC9343, 48 h
  MBC: 1.2 µg/mL (≈ 7.01 µM)
B. Fragilis NCTC 9343; Bacteroides fragilis, NCTC9343, 48 h, strain B
  MIC: 1.5 µg/mL (≈ 8.76 µM)
B. Fragilis NCTC 9343; strain B
  MIC: 0.8 µg/mL (≈ 4.67 µM)
